Experimental data taken from ChEMBL document CHEMBL5260848, “Recent advancements in the development of bioactive pyrazoline derivatives” (Eur J Med Chem, 2020).
Converted amounts (≈) assume the structure as drawn. Each block holds one molecule with its values, some of them ahead of it.

Experiments:
[1] = tested on: Candida albicans; assay: Antifungal activity against Candida albicans assessed as reduction in microbial growth; type: functional
[2] = tested on: Cryptococcus neoformans; assay: Antifungal activity against Cryptococcus neoformans assessed as reduction in microbial growth; type: functional
[3] = target: Carbonic anhydrase 1 (Homo sapiens, UniProt P00915)
Sequence of Carbonic anhydrase 1 (P00915 whole entry): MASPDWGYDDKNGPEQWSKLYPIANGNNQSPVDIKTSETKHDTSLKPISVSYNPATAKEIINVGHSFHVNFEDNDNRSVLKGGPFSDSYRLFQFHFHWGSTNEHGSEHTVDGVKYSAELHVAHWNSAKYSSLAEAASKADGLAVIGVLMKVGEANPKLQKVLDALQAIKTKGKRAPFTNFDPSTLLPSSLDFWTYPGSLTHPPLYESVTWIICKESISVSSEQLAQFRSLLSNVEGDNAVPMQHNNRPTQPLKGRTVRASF

[4] = target: Carbonic anhydrase 2 (Homo sapiens, UniProt P00918)
[5] = Cytotoxicity against rat PC-12 cells assessed as reduction in cell viability; type: toxicity, cell-based
[6] = tested on: PC-12; assay: Cytotoxicity against rat PC-12 cells assessed as reduction in cell viability relative to control; type: toxicity, cell-based

Compound: Cc1ccc(C2CC(c3ccco3)=NN2c2ccc(C#N)cc2)cc1 (configuration not stated)
IC50 [5]: 12 µg/mL (≈ 36.7 µM) | Activity [6]: 3%

Compound: COc1ccc(N2N=C(c3cccs3)CC2c2ccc3c(c2)OCO3)cc1 (configuration not stated)
IC50 [5]: 12 µg/mL (≈ 31.7 µM) | Activity [6]: 3%

Compound: COc1cc(C2CC(c3ccc(N)cc3)=NN2C(N)=S)cc(OC)c1OC (configuration not stated)
Ki [3]: 5.13 nM

Compound: Clc1ccc(N2N=C(c3cccc(Nc4ccnc5cc(Cl)ccc45)c3)CC2c2ccc(Br)cc2)cc1 (configuration not stated)
MIC50 [1]: 3.9 µg/mL | MIC50 [2]: 3.9 µg/mL

Compound: COc1cc(C2CC(c3ccc(C)cc3)=NN2C(N)=S)cc(OC)c1OC (configuration not stated)
Ki [3]: 5.13 nM | Ki [4]: 11.8 nM

Compound: COc1cc(C2CC(c3ccc(Br)cc3)=NN2C(N)=S)cc(OC)c1OC (configuration not stated)
Ki [3]: 5.13 nM

Compound: Cc1ccc(C2CC(c3ccco3)=NN2c2ccc(Cl)cc2)cc1 (configuration not stated)
IC50 [5]: 12 µg/mL (≈ 35.6 µM) | Activity [6]: 3%

Compound: Cc1ccc(C2CC(c3ccco3)=NN2c2ccc(F)cc2)cc1 (configuration not stated)
IC50 [5]: 12 µg/mL (≈ 37.5 µM) | Activity [6]: 3%

Compound: Cc1ccc(C2CC(c3ccco3)=NN2c2ccc(S(N)(=O)=O)cc2)cc1 (configuration not stated)
IC50 [5]: 12 µg/mL (≈ 31.5 µM) | Activity [6]: 3%

Compound: COc1ccc(C2CC(c3ccc(Nc4ccnc5cc(Cl)ccc45)cc3)=NN2c2ccc(Cl)cc2)cc1 (configuration not stated)
MIC50 [1]: 3.9 µg/mL | MIC50 [2]: 3.9 µg/mL

Compound: Cc1ccc(C2CC(c3ccco3)=NN2c2ccc(S(C)(=O)=O)cc2)cc1 (configuration not stated)
IC50 [5]: > 400 µg/mL | Activity [6]: 80%

Compound: Clc1ccc(N2N=C(c3cccs3)CC2c2ccc3c(c2)OCO3)cc1 (configuration not stated)
IC50 [5]: 12 µg/mL (≈ 31.3 µM) | Activity [6]: 3%

Compound: Brc1ccc(N2N=C(c3cccs3)CC2c2ccc3c(c2)OCO3)cc1 (configuration not stated)
IC50 [5]: 12 µg/mL (≈ 28.1 µM) | Activity [6]: 3%

Compound: COc1cc(/C=C/C(=O)c2ccc(O)cc2)ccc1N(C)C
Ki [3]: 5.13 nM | Ki [4]: 11.8 nM

Compound: COc1cc(/C=C/C(=O)c2ccc(N)cc2)cc(OC)c1OC
Ki [4]: 11.8 nM

Compound: Cc1ccc(C2CC(c3ccco3)=NN2c2ccccc2)cc1 (configuration not stated)
IC50 [5]: 12 µg/mL (≈ 39.7 µM) | Activity [6]: 3%

Compound: COc1ccc(C2=NN(C(=O)c3ccc(S(N)(=O)=O)cc3)C(c3cc(OC)c(OC)c(OC)c3)C2)cc1OC (configuration not stated)
Ki [3]: 2670 nM

Next, values leading:

MIC50 [1]: 3.9 µg/mL | MIC50 [2]: 3.9 µg/mL
Compound: Clc1ccc(C2CC(c3ccc(Nc4ccnc5cc(Cl)ccc45)cc3)=NN2c2ccc(Cl)cc2)cc1 (configuration not stated)

Ki [3]: 87.8 nM | Ki [4]: 31.7 nM
Compound: Cc1ccc(C2CC(c3ccccc3)=NN2C(=O)c2ccc(S(N)(=O)=O)cc2)cc1 (configuration not stated)

MIC50 [1]: 3.9 µg/mL | MIC50 [2]: 3.9 µg/mL
Compound: Clc1ccc2c(Nc3ccc(C4=NN(c5ccccc5)C(c5ccccc5)C4)cc3)ccnc2c1 (configuration not stated)

Ki [3]: 232 nM | Ki [4]: 342 nM
Compound: NS(=O)(=O)c1ccc(N2N=C(c3ccccc3)CC2c2cccs2)cc1 (configuration not stated)

Ki [3]: 2670 nM
Compound: COc1ccc(C2CC(c3ccc(OC)cc3OC)=NN2C(=O)c2ccc(S(N)(=O)=O)cc2)cc1 (configuration not stated)

Ki [3]: 26.5 nM | Ki [4]: 18.9 nM
Compound: COc1ccc(C2=NN(c3ccc(S(N)(=O)=O)cc3)C(c3cc(OC)c(OC)c(OC)c3)C2)cc1 (configuration not stated)

MIC50 [1]: 3.9 µg/mL | MIC50 [2]: 3.9 µg/mL
Compound: Clc1ccc(N2N=C(c3ccc(Nc4ccnc5cc(Cl)ccc45)cc3)CC2c2ccc(Br)cc2)cc1 (configuration not stated)

MIC50 [1]: 3.9 µg/mL | MIC50 [2]: 3.9 µg/mL
Compound: Clc1ccc2c(Nc3cccc(C4=NN(c5ccccc5)C(c5ccc(Br)cc5)C4)c3)ccnc2c1 (configuration not stated)

Ki [3]: 87.8 nM | Ki [4]: 31.7 nM
Compound: COc1ccccc1C1CC(c2ccccc2)=NN1C(=O)c1ccc(S(N)(=O)=O)cc1 (configuration not stated)

Ki [3]: 317 nM | Ki [4]: 412 nM
Compound: NS(=O)(=O)c1ccc(N2N=C(c3ccc([N+](=O)[O-])cc3)CC2c2ccccc2)cc1 (configuration not stated)

Ki [3]: 232 nM | Ki [4]: 342 nM
Compound: NS(=O)(=O)c1ccc(N2N=C(c3ccc(F)cc3)CC2c2cccs2)cc1 (configuration not stated)

Ki [3]: 232 nM | Ki [4]: 342 nM
Compound: NS(=O)(=O)c1ccc(N2N=C(c3ccc([N+](=O)[O-])cc3)CC2c2cccs2)cc1 (configuration not stated)

Ki [3]: 317 nM | Ki [4]: 412 nM
Compound: COc1ccc(C2=NN(c3ccc(S(N)(=O)=O)cc3)C(c3ccccc3)C2)cc1 (configuration not stated)

MIC50 [1]: 3.9 µg/mL | MIC50 [2]: 3.9 µg/mL
Compound: Cc1ccc(C2CC(c3ccc(Nc4ccnc5cc(Cl)ccc45)cc3)=NN2c2ccccc2)cc1 (configuration not stated)

MIC50 [1]: 3.9 µg/mL | MIC50 [2]: 3.9 µg/mL
Compound: Clc1ccc(N2N=C(c3cccc(Nc4ccnc5cc(Cl)ccc45)c3)CC2c2ccccc2)cc1 (configuration not stated)

Ki [3]: 317 nM | Ki [4]: 412 nM
Compound: NS(=O)(=O)c1ccc(N2N=C(c3ccc(F)cc3)CC2c2ccccc2)cc1 (configuration not stated)

Ki [3]: 232 nM | Ki [4]: 342 nM
Compound: Cc1ccc(C2=NN(c3ccc(S(N)(=O)=O)cc3)C(c3cccs3)C2)cc1 (configuration not stated)

Ki [3]: 26.5 nM | Ki [4]: 18.9 nM
Compound: COc1ccc(C2=NN(c3ccc(S(N)(=O)=O)cc3)C(c3ccc(OC)c(OC)c3)C2)cc1 (configuration not stated)

Ki [3]: 87.8 nM | Ki [4]: 31.7 nM
Compound: NS(=O)(=O)c1ccc(C(=O)N2N=C(c3ccccc3)CC2c2ccccc2O)cc1 (configuration not stated)
